Patent US12629374B2, “Antimalarial agents” (Merck Sharp & Dohme LLC, priority 2020, dated 2026)
Where two headings read alike, the source gives them in different places.

System: ring stage parasites
Assay: Parasite growth potency assay, 72 hours, LDH readout
Type: cell-based
Description: The parasite stock was maintained at 4% haematocrit in RPMI-Hepes media buffered with sodium bicarbonate and supplemented with 5% heat inactivated human serum and 0.5% albumax.
On the day of assay set up, a blood smear of the parasite culture was Giemsa stained and counted. The parasitemia was adjusted to 0.7% rings and the haematocrit was diluted to 2% in RPMI-Hepes media buffered with sodium bicarbonate and supplemented with 5% heat inactivated human serum and 0.5% albumax. 30 ul of diluted parasites are then added into 10 ul of media+compound in pre-prepared Greiner TC assay plates. Parasite assay plates were placed in gassed humidified boxes in single layer and allowed to incubate at 37° C. for 72 hours. After 72 hours growth, assay plates are sealed with parafilm and frozen flat, in single file at −80° C. overnight. On the following day, assay plates are allowed to thaw at room temperature for 4 hours to which an LDH assay is performed to measure parasite growth.

[1] = 72 h, parasite growth measured by LDH assay after 72 hours at 37° C., 0.7% rings, 2% haematocrit, read-out: EC50
[2] = parasite growth measured by LDH assay after 72 hours at 37° C., 0.7% rings, 2% haematocrit, read-out: EC50
[3] = parasite growth measured by LDH assay after 72 hours at 37° C., 0.7% rings, 2% haematocrit, trifluoroacetate, read-out: EC50

| Compound | EC50 [1] [nM] | further results |
| --- | --- | --- |
| CC[C@@H](c1cccc(C(=O)N[C@@H]2c3ccccc3OC(C)(C)[C@H]2O)c1)N1C(=N)NC(CC)(CC)CC1=O [Example 207B, [4,4-diethyl-1-[1-[3-[[(3S,4R)-3-hydroxy-2,2-dimethyl-chroman-4-yl]carbamoyl]phenyl]propyl]-6-oxo-hexahydropyrimidin-2-ylidene]ammonium; 2,2,2-trifluoroacetate] | 72 | – |
| CCC1(CC)CC(=O)N([C@H](CC(C)(C)O)c2cccc(C(=O)N[C@H]3CC(C)(C)Oc4ccccc43)c2)C(=N)N1 [Example 145, 3-[1-(4,4-diethyl-2-imino-6-oxo-hexahydropyrimidin-1-yl)-3-hydroxy-3-methyl-butyl]-N-[(4S)-2,2-dimethylchroman-4-yl]benzamide] | 0.7 | – |
| CC[C@]1(C)CC(=O)N([C@H](CCOC)c2cccc(C(=O)NC3c4ccccc4OC(C)(C)C3(C)O)c2)C(=N)N1 (single isomer, unassigned) [Example 234A] | – | EC50 [2]: 0.43 nM |
| CCC1(CC)CC(=O)N([C@H](CCOC)c2cccc(C(=O)N[C@@H]3c4ccccc4OCC3(C)O)c2)C(=N)N1 (stereo in doubt) [Example 143B, 3-[1-(4,4-diethyl-2-imino-6-oxo-hexahydropyrimidin-1-yl)-3-methoxy-propyl]-N-(3-hydroxy-3-methyl-chroman-4-yl)benzamide] | – | EC50 [2]: 1.8 nM |
| CCC1(CC)CC(=O)N(Cc2cc(F)cc(C(=O)N[C@H]3CCOc4ccccc43)c2)C(=N)N1 [Example 12, [1-[[3-[[(4S)-chroman-4-yl]carbamoyl]-5-fluoro-phenyl]methyl]-4,4-diethyl-6-oxo-hexahydropyrimidin-2-ylidene]ammonium; 2,2,2-trifluoroacetate] | 1.4 | – |
| COCC[C@H](c1cccc(C(=O)N[C@@H]2c3ccccc3C[C@H]2O)c1)N1C(=N)NC(C)(C)CC1=O [Example 179, [1-[(1R)-1-[3-[[(1R,2R)-2-hydroxyindan-1-yl]carbamoyl]phenyl]-3-methoxy-propyl]-4,4-dimethyl-6-oxo-hexahydropyrimidin-2-ylidene]ammonium; 2,2,2-trifluoroacetate] | 8.3 | – |
| CCC1(CC)CC(=O)N(Cc2cc(C(=O)N[C@@H]3c4ccccc4OC(C)(C)[C@H]3O)ccn2)C(=N)N1 (stereo in doubt) [Example 133, [4,4-diethyl-1-[[4-[(3-hydroxy-2,2-dimethyl-chroman-4-yl)carbamoyl]pyridin-1-ium-2-yl]methyl]-6-oxo-hexahydropyrimidin-2-ylidene]ammonium; 2,2,2-trifluoroacetate] | 3.3 | – |
| CCC1(C)CC(=O)N([C@H](CCOC)c2cccc(C(=O)N[C@@H]3c4ccccc4C[C@H]3O)c2)C(=N)N1 (stereo partly drawn) [Example 195A, [4-ethyl-1-[(1R)-1-[3-[[(1R,2R)-2-hydroxyindan-1-yl]carbamoyl]phenyl]-3-methoxy-propyl]-4-methyl-6-oxo-hexahydropyrimidin-2-ylidene]ammonium; 2,2,2-trifluoroacetate] | 3.3 | – |
| CCC1(CC)CC(=O)N(C(c2cncnc2)c2cccc(C(=O)NC3CC(C)(C)Oc4ccccc43)c2)C(=N)N1 (single isomer, unassigned) [Example 92C, 3-[(4,4-diethyl-2-imino-6-oxo-hexahydropyrimidin-1-yl)-pyrimidin-5-yl-methyl]-N-(2,2-dimethylchroman-4-yl)benzamide] | – | EC50 [2]: 2.8 nM |
| C#CCCCC(c1cccc(C(=O)N[C@@H]2CCOc3ccccc32)c1)N1C(=N)NC(CC)(CC)CC1=O (stereo partly drawn) [Example 210B, [1-[1-[3-[[(4R)-chroman-4-yl]carbamoyl]phenyl]hex-5-ynyl]-4,4-diethyl-6-oxo-hexahydropyrimidin-2-ylidene]ammonium; 2,2,2-trifluoroacetate] | – | EC50 [3]: 2.3 nM |
| COCC[C@H](c1cccc(C(=O)N[C@@H]2c3ccccc3OC(C)(C)[C@H]2O)c1)N1C(=N)NC(C)(C)CC1=O [Example 178, [1-[(1R)-1-[3-[[(3S,4R)-3-hydroxy-2,2-dimethyl-chroman-4-yl]carbamoyl]phenyl]-3-methoxy-propyl]-4,4-dimethyl-6-oxo-hexahydropyrimidin-2-ylidene]ammonium; 2,2,2-trifluoroacetate] | 2.4 | – |
| CCC1(CC)CC(=O)N([C@H](CCOC)c2cccc(C(=O)N[C@@H]3c4ccccc4OC[C@H]3O)c2)C(=N)N1 [Example 152B, [4,4-diethyl-1-[(1R)-1-[3-[[(3S,4R)-3-hydroxychroman-4-yl]carbamoyl]phenyl]-3-methoxy-propyl]-6-oxo-hexahydropyrimidin-2-ylidene]ammonium; 2,2,2-trifluoroacetate] | 2 | – |
| CC(C)[C@]1(C)CC(=O)N(Cc2cccc(C(=O)NC3CC(C)(C)Oc4ccccc43)c2)C(=N)N1 (stereo partly drawn) [Example 79, [(4S)-1-[[3-[(2,2-dimethylchroman-4-yl)carbamoyl]phenyl]methyl]-4-isopropyl-4-methyl-6-oxo-hexahydropyrimidin-2-ylidene]ammonium; 2,2,2-trifluoroacetate] | 2.1 | – |
| CCC[C@H](c1cc(C(=O)N[C@H]2CCOc3ccccc32)ccn1)N1C(=N)NC(CC)(CC)CC1=O [Example 49A, [1-[1-[4-[[(4S)-chroman-4-yl]carbamoyl]pyridin-1-ium-2-yl]butyl]-4,4-diethyl-6-oxo-hexahydropyrimidin-2-ylidene]ammonium; 2,2,2-trifluoroacetate] | 0.7 | – |
| CC1(C)CC(=O)N(Cc2cccc(C(=O)N[C@H]3CC(C)(C)Oc4ccccc43)c2)C(=N)N1 [Example 198, [1-[[3-[[(4S)-2,2-dimethylchroman-4-yl]carbamoyl]phenyl]methyl]-4,4-dimethyl-6-oxo-hexahydropyrimidin-2-ylidene]ammonium; 2,2,2-trifluoroacetate] | 17 | – |
| CCC1(CC)CC(=O)N(Cc2cccc(C(=O)N[C@@H]3C[C@@H](C(F)(F)F)Oc4ccccc43)c2)C(=N)N1 (stereo in doubt) [Example 91B, [4,4-diethyl-6-oxo-1-[[3-[[2-(trifluoromethyl)chroman-4-yl]carbamoyl]phenyl]methyl]hexa-hydropyrimidin-2-ylidene]ammonium; 2,2,2-trifluoroacetate] | 63.7 | – |
| CCOCC[C@H](c1cccc(C(=O)N[C@@H]2c3ccccc3C[C@H]2O)c1)N1C(=N)NC(C)(C)CC1=O [Example 171, [1-[3-ethoxy-1-[3-[[(1R,2R)-2-hydroxyindan-1-yl]carbamoyl]phenyl]propyl]-4,4-dimethyl-6-oxo-hexahydropyrimidin-2-ylidene]ammonium; 2,2,2-trifluoroacetate] | 5.2 | – |
| CCC1(CC)CC(=O)N([C@H](CCN2CCOCC2)c2cccc(C(=O)N[C@H]3CCOc4ccccc43)c2)C(=N)N1 [Example 54, [1-[1-[3-[[(4S)-chroman-4-yl]carbamoyl]phenyl]-3-morpholin-4-ium-4-yl-propyl]-4,4-diethyl-6-oxo-hexahydropyrimidin-2-ylidene]ammonium; 2,2,2-trifluoroacetate] | 5.6 | – |
| CCC[C@@H](c1cccc(C(=O)N[C@H]2CCOc3ccccc32)c1)N1C(=N)NC(CC)(CC)CC1=O [Example 13B, [1-[1-[3-[[(4S)-chroman-4-yl]carbamoyl]phenyl]butyl]-4,4-diethyl-6-oxo-hexahydropyrimidin-2-ylidene]ammonium; 2,2,2-trifluoroacetate] | 43.8 | – |
| CCC1(COC)CC(=O)N(Cc2cccc(C(=O)N[C@H]3CCOc4ccccc43)c2)C(=N)N1 (stereo partly drawn) [Example 86, [1-[[3-[[(4S)-chroman-4-yl]carbamoyl]phenyl]methyl]-4-ethyl-4-(methoxymethyl)-6-oxo-hexahydropyrimidin-2-ylidene]ammonium; 2,2,2-trifluoroacetate] | 49.6 | – |
| CCC1(CC)CC(=O)N([C@H](CCOC)c2cccc(C(=O)N[C@@H]3c4ccccc4OC[C@@H]3O)c2)C(=N)N1 [Example 152A, [4,4-diethyl-1-[(1R)-1-[3-[[(3R,4R)-3-hydroxychroman-4-yl]carbamoyl]phenyl]-3-methoxy-propyl]-6-oxo-hexahydropyrimidin-2-ylidene]ammonium; 2,2,2-trifluoroacetate] | 8.8 | – |
| CCC1(CC)CC(=O)N([C@H](CCN2CCOCC2)c2cccc(C(=O)N[C@H]3C[C@H](C(F)(F)F)Oc4ccccc43)c2)C(=N)N1 [Example 136, [4,4-diethyl-1-[3-morpholin-4-ium-4-yl-1-[3-[[(2R,4S)-2-(trifluoromethyl)chroman-4-yl]carbamoyl]phenyl]propyl]-6-oxo-hexahydropyrimidin-2-ylidene]ammonium; 2,2,2-trifluoroacetate] | 1.3 | – |
| CCC1(CC)CC(=O)N([C@@H](c2cccc(C(=O)N[C@@H]3CC(C)(C)Oc4ccccc43)c2)c2cncs2)C(=N)N1 (stereo in doubt) [Example 90A, 3-[(4,4-diethyl-2-imino-6-oxo-hexahydropyrimidin-1-yl)-thiazol-5-yl-methyl]-N-(2,2-dimethylchroman-4-yl)benzamide] | – | EC50 [2]: 3.2 nM |
| CCC1(CC)CC(=O)N(Cc2cncc(C(=O)NC3CC(C)(C)Oc4ccccc43)c2)C(=N)N1 (stereo not shown) [Example 81, [1-[[5-[(2,2-dimethylchroman-4-yl)carbamoyl]pyridin-1-ium-3-yl]methyl]-4,4-diethyl-6-oxo-hexahydropyrimidin-2-ylidene]ammonium; 2,2,2-trifluoroacetate] | – | EC50 [3]: 1.3 nM |
| CCC1(CC)CC(=O)N([C@H](c2ccc(OS(=O)(=O)F)cc2)c2cccc(C(=O)N[C@H]3CCOc4ccccc43)c2)C(=N)N1 [Example 150, [1-[[3-[[(4S)-chroman-4-yl]carbamoyl]phenyl]-(4-fluorosulfonyloxyphenyl)methyl]-4,4-diethyl-6-oxo-hexahydropyrimidin-2-ylidene]ammonium; 2,2,2-trifluoroacetate] | – | EC50 (72 h): 2.8 nM |
